For assay [1], the target named is T1, SMYD3 (Homo sapiens (Human), UniProt Q9H7B4). Put plainly: SMYD3 biochemical assay (SPA, 3H-SAM methylation of MEKK2 protein substrate). The settings on record: average of n = 1 to n = 50; read-out: SMYD3 Biochem IC50. The method, boiled down: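 Methylation of N-terminally GST-tagged MEKK2 by untagged full-length human SMYD3, using 3H-SAM, in pH 8.0 Tris buffer with TCEP, BSG and Tween 20; enzyme and compound sat 30 min at room temperature before substrate addition. Stopped with 100 uM (final) cold SAM; incorporation read by scintillation proximity as dpm/cpm.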

The target of assay [2] is T1, SMYD3. Put plainly: SMYD3 cell assay (Trimethyl-MEKK2 In-Cell Western in 293T/17 cells). The assay is classed as cell-based. Particulars: average of n = 1 to n = 50; read-out: SMYD3 Cell IC50. In short, it runs like this:
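In-Cell Western readout: methanol-fixed cells stained for trimethyl-MEKK2 and flag tag, ratio per well normalized to DMSO and background controls.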

The structures appear in SMILES notation. pIC50: −log10 of the molar value.

Here are results for ten compounds from patent publication US10577363B2, “Substituted piperidine compounds” (EPIZYME, INC., priority 2014, dated 2020).

T1 sequence (Q9H7B4 whole entry): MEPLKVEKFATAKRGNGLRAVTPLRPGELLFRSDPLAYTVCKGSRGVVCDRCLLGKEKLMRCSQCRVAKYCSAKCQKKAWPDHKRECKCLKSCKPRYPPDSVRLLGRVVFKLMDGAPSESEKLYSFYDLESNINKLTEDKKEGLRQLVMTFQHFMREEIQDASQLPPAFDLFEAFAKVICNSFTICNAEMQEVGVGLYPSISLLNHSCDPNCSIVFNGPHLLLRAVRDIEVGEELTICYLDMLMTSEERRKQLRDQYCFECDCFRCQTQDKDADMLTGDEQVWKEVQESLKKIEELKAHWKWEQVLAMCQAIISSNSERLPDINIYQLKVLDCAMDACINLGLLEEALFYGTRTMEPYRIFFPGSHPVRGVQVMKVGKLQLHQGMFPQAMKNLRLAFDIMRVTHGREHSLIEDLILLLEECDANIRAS

On to `C[C@H]1C[C@@H](NC(=O)c2cc(C3CC3)on2)CCN1S(=O)(=O)c1cccc(N)n1` [compound 708, N-((2S,4S)-1-((6-aminopyridin-2-yl)sulfonyl)-2-methylpiperidin-4-yl)-5-cyclopropylisoxazole-3-carboxamide], for which the results for the pIC50 on SMYD3 [1] and on SMYD3 [2] were 6.60 and 5.78, respectively.
Take `CN1CCC(N(C)S(=O)(=O)N2[C@@H]3CCC[C@@H]2CC(NC(=O)c2cc(C4CC4)on2)C3)CC1` (stereo partly drawn) [compound 709, 5-cyclopropyl-N-((1R,5R)-9-(N-methyl-N-(1-methylpiperidin-4-yl)sulfamoyl)-9-azabicyclo[3.3.1]nonan-3-yl)isoxazole-3-carboxamide]: the values for the pIC50 at SMYD3 [1] and on SMYD3 [2] were 6.59 and 5.72, respectively.
For `C[C@H]1CN(S(=O)(=O)N2CCN(C)CC2)CC[C@H]1NC(=O)c1cc(C2CC2)on1` [compound 710, 5-cyclopropyl-N-((3S,4R)-3-methyl-1-((4-methylpiperazin-1-yl)sulfonyl)piperidin-4-yl)isoxazole-3-carboxamide] the same measures were 6.58 and 6.08.
For the compound `CC[C@@H]1CN(S(=O)(=O)N2CC[C@H](NC(=O)c3cc(C4CC4)on3)C[C@@H]2C)CCN1C` [compound 711, 5-cyclopropyl-N-((2S,4S)-1-(((R)-3-ethyl-4-methylpiperazin-1-yl)sulfonyl)-2-methylpiperidin-4-yl)isoxazole-3-carboxamide], the negative-log IC50 (pIC50) is 6.56 at SMYD3 [1] and 5.94 at SMYD3 [2].
In the case of `C[C@@H]1CN(S(=O)(=O)N2CC[C@H](NC(=O)c3cc(C4CC4)on3)C[C@@H]2C)[C@@H](C)CN1C` [compound 712, 5-cyclopropyl-N-((2S,4S)-2-methyl-1-(((2S,5R)-2,4,5-trimethylpiperazin-1-yl)sulfonyl)piperidin-4-yl)isoxazole-3-carboxamide], the pIC50 was 6.56 on SMYD3 [1] and 5.96 at SMYD3 [2].
The corresponding values for `CCC1CN(S(=O)(=O)N2[C@@H]3CC[C@H]2C[C@@H](NC(=O)c2cc(C4CC4)on2)C3)CCN1C` (stereo partly drawn) [compound 713, 5-cyclopropyl-N-((1R,3r,5S)-8-((3-ethyl-4-methylpiperazin-1-yl)sulfonyl)-8-azabicyclo[3.2.1]octan-3-yl)isoxazole-3-carboxamide] are 6.53 and 5.93.
Turning to `CN(C1CCNCC1)S(=O)(=O)N1CC[C@@H](NC(=O)c2cc(C3CC3)on2)C[C@@H]1Cc1ccccc1` [compound 714, N-((2S,4R)-2-benzyl-1-(N-methyl-N-(piperidin-4-yl)sulfamoyl)piperidin-4-yl)-5-cyclopropylisoxazole-3-carboxamide], the pIC50 at SMYD3 [1] was 6.53; on SMYD3 [2] it was 5.50.
For `CN(C1CCNCC1)S(=O)(=O)N1CC[C@H](NC(=O)c2cc(C3CC3)on2)C[C@H]1Cc1ccccc1` [compound 715, N-((2R,4S)-2-benzyl-1-(N-methyl-N-(piperidin-4-yl)sulfamoyl)piperidin-4-yl)-5-cyclopropylisoxazole-3-carboxamide] the same measures were 6.53 and 5.52.
The corresponding values for `C[C@@H]1C[C@H](NC(=O)c2cc(C3CC3)on2)CCN1S(=O)(=O)CCC(N)Cc1ccccc1` (stereo partly drawn) [compound 716, N-((2R,4R)-1-((3-amino-4-phenylbutyl)sulfonyl)-2-methylpiperidin-4-yl)-5-cyclopropylisoxazole-3-carboxamide] are 6.52 and 5.45.
The corresponding values for `O=C(N[C@H]1CCN(S(=O)(=O)C2CCNC2)[C@@H](Cc2ccccc2)C1)c1cc(C2CC2)on1` (stereo partly drawn) [compound 717, N-((2S,4S)-2-benzyl-1-(pyrrolidin-3-ylsulfonyl)piperidin-4-yl)-5-cyclopropylisoxazole-3-carboxamide] are 6.51 and 5.69.

As a reminder, the pIC50 is −log10 of the IC50, conventionally taken in molar units.
